ChEMBL document CHEMBL3046745, “Sensitivity of Cucumber Powdery Mildew Fungus (Sphaerotheca fuliginea) to Several Fungicides” (J Pestic Sci, 1991)

Key:
[1] = system: Podosphaera fuliginea; assay: Antifungal activity against Podosphaera fuliginea isolate S-2 in cucumber plants by leaf disc method; format: functional, organism-based
[2] = system: Podosphaera fuliginea; assay: Antifungal activity against Podosphaera fuliginea isolate N-2 in cucumber plants assessed as percentage of infected leaf area at 466.7 ppm treated 3 times at 7-day interval by foliar spray test; format: functional
[3] = system: Podosphaera fuliginea; assay: Resistant ratio, ratio of EC50 for Podosphaera fuliginea isolate S-2 to EC50 for Podosphaera fuliginea isolate K-7; format: functional
[4] = system: Podosphaera fuliginea; assay: Antifungal activity against Podosphaera fuliginea isolate S-2 in cucumber plants assessed as percentage of infected leaf area at 466.7 ppm treated 3 times at 7-day interval by foliar spray test; format: functional
[5] = system: Podosphaera fuliginea; assay: Antifungal activity against Podosphaera fuliginea isolate N-2 in cucumber plants by leaf disc method; format: functional, organism-based
[6] = system: Podosphaera fuliginea; assay: Antifungal activity against Podosphaera fuliginea isolate N-1 in cucumber plants by leaf disc method; format: functional, organism-based
[7] = system: Podosphaera fuliginea; assay: Antifungal activity against Podosphaera fuliginea isolate K-7 in cucumber plants by leaf disc method; format: functional, organism-based
[8] = system: Podosphaera fuliginea; assay: Antifungal activity against Podosphaera fuliginea isolate N-1 in cucumber plants assessed as percentage of infected leaf area at 466.7 ppm treated 3 times at 7-day interval by foliar spray test; format: functional
[9] = system: Podosphaera fuliginea; assay: Resistant ratio, ratio of EC50 for Podosphaera fuliginea isolate N-2 to EC50 for Podosphaera fuliginea isolate K-7; format: functional
[10] = system: Podosphaera fuliginea; assay: Antifungal activity against Podosphaera fuliginea isolate K-7 in cucumber plants assessed as percentage of infected leaf area at 466.7 ppm treated 3 times at 7-day interval by foliar spray test; format: functional
[11] = system: Podosphaera fuliginea; assay: Resistant ratio, ratio of EC50 for Podosphaera fuliginea isolate N-1 to EC50 for Podosphaera fuliginea isolate K-7; format: functional
[12] = system: Podosphaera fuliginea; assay: Antifungal activity against Podosphaera fuliginea isolate S-2 in cucumber plants assessed as percentage of infected leaf area at 125 ppm treated 3 times at 7-day interval by foliar spray test; format: functional
[13] = system: Podosphaera fuliginea; assay: Antifungal activity against Podosphaera fuliginea isolate N-2 in cucumber plants assessed as percentage of infected leaf area at 125 ppm treated 3 times at 7-day interval by foliar spray test; format: functional
[14] = system: Podosphaera fuliginea; assay: Antifungal activity against Podosphaera fuliginea isolate K-7 in cucumber plants assessed as percentage of infected leaf area at 125 ppm treated 3 times at 7-day interval by foliar spray test; format: functional
[15] = system: Podosphaera fuliginea; assay: Antifungal activity against Podosphaera fuliginea isolate N-1 in cucumber plants assessed as percentage of infected leaf area at 125 ppm treated 3 times at 7-day interval by foliar spray test; format: functional
[16] = system: Podosphaera fuliginea; assay: Antifungal activity against Podosphaera fuliginea isolate S-2 in cucumber plants assessed as percentage of infected leaf area at 62.5 ppm treated 3 times at 7-day interval by foliar spray test; format: functional
[17] = system: Podosphaera fuliginea; assay: Antifungal activity against Podosphaera fuliginea isolate N-1 in cucumber plants assessed as percentage of infected leaf area at 62.5 ppm treated 3 times at 7-day interval by foliar spray test; format: functional
[18] = system: Podosphaera fuliginea; assay: Antifungal activity against Podosphaera fuliginea isolate N-2 in cucumber plants assessed as percentage of infected leaf area at 62.5 ppm treated 3 times at 7-day interval by foliar spray test; format: functional
[19] = system: Podosphaera fuliginea; assay: Antifungal activity against Podosphaera fuliginea isolate K-7 in cucumber plants assessed as percentage of infected leaf area at 62.5 ppm treated 3 times at 7-day interval by foliar spray test; format: functional
[20] = system: Podosphaera fuliginea; assay: Antifungal activity against Podosphaera fuliginea isolate K-7 in cucumber plants assessed as percentage of infected leaf area at 25 ppm treated 3 times at 7-day interval by foliar spray test; format: functional
[21] = system: Podosphaera fuliginea; assay: Antifungal activity against Podosphaera fuliginea isolate S-2 in cucumber plants assessed as percentage of infected leaf area at 25 ppm treated 3 times at 7-day interval by foliar spray test; format: functional
[22] = system: Podosphaera fuliginea; assay: Antifungal activity against Podosphaera fuliginea isolate N-2 in cucumber plants assessed as percentage of infected leaf area at 25 ppm treated 3 times at 7-day interval by foliar spray test; format: functional
[23] = system: Podosphaera fuliginea; assay: Antifungal activity against Podosphaera fuliginea isolate N-1 in cucumber plants assessed as percentage of infected leaf area at 25 ppm treated 3 times at 7-day interval by foliar spray test; format: functional

Row | Compound | EC50 [1] | Ratio EC50 [3] | EC50 [5] [ppm] | EC50 [6] | EC50 [7] | Ratio EC50 [9] | Ratio EC50 [11] | also measured
1 | COC(=O)NC(=S)Nc1ccccc1NC(=S)NC(=O)OC [THIOPHANATE METHYL] | 479 ppm | 17675.3 | 719 | 680 ppm | 2.71 ×10⁻² ppm | 26531.4 | 25092.3 | Activity [2]: 11.9%; Activity [4]: 0%; Activity [8]: 5.1%; Activity [10]: 97.8%
2 | Cc1ccc2nc3sc(=O)sc3nc2c1 [CHINOMETHIONAT] | 4.95 ppm | 3.9 | 3.35 | 4.83 ppm | 1.27 ppm | 2.6 | 3.8 | Activity [12]: 91.3%; Activity [13]: 94.9%; Activity [14]: 96.5%; Activity [15]: 91.1%
3 | CCCCc1c(C)nc(N(C)C)nc1O [DIMETHIRIMOL] | 4.64 ppm | 157.3 | 6.45 | 6.6 ppm | 2.95 ×10⁻² ppm | 218.6 | 223.7 | Activity [16]: 55.2%; Activity [17]: 49.4%; Activity [18]: 47.4%; Activity [19]: 98.8%
4 | CC(C)(C)C(=O)C(Oc1ccc(Cl)cc1)n1cncn1 (centres undefined) [TRIADIMEFON] | 1.82 ×10⁻² ppm | 1.8 | 5.7 | 9.72 ×10⁻¹ ppm | 1.03 ×10⁻² ppm | 553.4 | 94.4 | Activity [20]: 98.8%; Activity [21]: 100%; Activity [22]: 45.8%; Activity [23]: 76%
